In patent publication US11986462B2, “Use of tacrolimus in preparation of medicament for initiating tissue regeneration function” (priority 2020, dated 2024):

Columns and labels:
[1] = system: distal caudal fin tissue of a zebrafish; assay: Tissue regeneration experiment of distal caudal fin of zebrafish (wound model); assay type: in vivo; conditions: 3 μM tacrolimus in culture solution, adult zebrafish, 1, 3 and 5 days after amputation, vs DMSO control
Procedure: 1. Experimental fish lines and culturing method are as follows: a wild-type (AB) fish was used as an experimental fish, stored in a flowing water tank at 28±0.5° C. with a pH=7±0.5, a conductivity of an aquaculture water was […]; and a photoperiod was 14 h of lighting and 10 h of darkness. Fresh sandworms were fed three times a day. Raising was conducted in accordance with the guidelines of the Ministry of Science and Technology of the People's Republic of China on the cultivation of experimental animals (2006); all fishes were kept under standard laboratory conditions. 2. Wound model construction is as follows: an adult zebrafish was lightly anesthetized in an anesthetic supplemented with tricaine and placed in a 1.5 g/100 mL agarose tank. A tissue with a length of 2-3 joints and a width of two fin rays on caudal fin surface was excavated using a scalpel blade; a hole was exposed on the caudal fin surface to form a damaged tissue containing a proximal wound and a distal wound. Proximal regenerative tissues were daily removed to prevent the hole from being filled. A regeneration status of the caudal fin was imaged and recorded using a Zeiss Discovery […] microscope (Carl Zeiss, Germany). 3. […]

calcineurin = assay: Determination of calcineurin activity in caudal fin tissues (malachite green, RII peptide substrate); assay type: in vivo, zebrafish; conditions: 3 μM tacrolimus in culture solution, vs DMSO control group non-regenerative tissues
Procedure: 4. […] Free phosphate in the sample was removed, the phosphorylated RII peptide was added, and the sample was incubated at 30° C. for 30 min. Malachite green as a phosphate indicator was added, and the amount of free phosphate in the sample was determined using a SpectraMax® iD3 multi-mode microplate reader (Molecular Devices, USA). The calcineurin activity was normalized to a total protein concentration.

[2] = in the human body; cited from earlier work
[3] = cited from earlier work

C=CC[C@@H]1/C=C(\C)C[C@H](C)C[C@H](OC)[C@H]2O[C@@](O)(C(=O)C(=O)N3CCCC[C@H]3C(=O)O[C@H](/C(C)=C/[C@@H]3CC[C@@H](O)[C@H](OC)C3)[C@H](C)[C@@H](O)CC1=O)[C@H](C)C[C@@H]2OC [tacrolimus, Tacrolimus]
regeneration of non-regenerative distal caudal fin tissue [1]: the distal tissue regeneration was initiated
calcineurin activity in tissue, normalized to total protein concentration (calcineurin): lower than that of the non-regenerative tissues
half-life [2]: 10.7 h
stability in aqueous solution [3]: extremely-unstable in aqueous solution and can be rapidly degraded
